Assay results taken from patent publication US20190365675A1, “COMPOSITIONS FOR THE PREVENTION AND/OR TREATMENT OF ALCOHOL USE DISORDERS” (SERVICIO ANDALUZ DE SALUD, priority 2016, published 2019).

How the values were obtained:
[1] = system: IκBα; experiment: IκBα mRNA and protein in frontal cortex cytosol extracts after ethanol intoxication; format: in vivo, Wistar rats; conditions: OEA pre-treatment
Experimental: The animals were treated with intragastric (i.g.) ethanol 3 times a day using an i.g. cannula (16G needle, Fisher Scientific, Waltham, Mass., USA), following a protocol based on a slightly modified standard 4-day alcohol intoxication pattern (Bernier et al., 2002a, b) (FIG. 1A). The ethanol doses were administered every 8 h for a total time of 4 days. The rats treated with ethanol received an initial loading dose of 5 g/kg of ethanol in a 30% solution (w/v) and then a maximum maintenance dose of 3 g/kg, which were determined based on blood ethanol levels (BEL). This repeated standard alcohol intoxication paradigm kept BEL intoxication relatively constant in a range of sedation/ataxia (190 to 430 mg/dl, Table 3), according to the 6-point alcohol intoxication behavior scale (Majchrowicz, 1975). The mean dose of ethanol/rat/day (days 1-4) was 7.06 g/kg, similar to other studies (Obernier et al., 2002a, b). […] The autoradiograph was quantified by densitometry (NIH ImageJ® software, National Biosciences, Lincoln, Nebr. USA) and expressed as optical density (OD). […] The quantitative changes in mRNA levels were estimated by means of RT-PCR, carried out in the presence of the SYBR green primer using a 20-L reaction in a Rotor-Gene (Corbett Research®, Mortlake, NSW, Australia). […]

[2] = system: HMGB1; experiment: HMGB1 levels (ELISA) and nuclear/cytoplasmic ratio (Western blot) in frontal cortex after ethanol intoxication; format: in vivo, Wistar rats
Experimental: The animals were treated with intragastric (i.g.) ethanol 3 times a day using an i.g. cannula (16G needle, Fisher Scientific, Waltham, Mass., USA), following a protocol based on a slightly modified standard 4-day alcohol intoxication pattern (Bernier et al., 2002a, b) (FIG. 1A). The ethanol doses were administered every 8 h for a total time of 4 days. The rats treated with ethanol received an initial loading dose of 5 g/kg of ethanol in a 30% solution (w/v) and then a maximum maintenance dose of 3 g/kg, which were determined based on blood ethanol levels (BEL). This repeated standard alcohol intoxication paradigm kept BEL intoxication relatively constant in a range of sedation/ataxia (190 to 430 mg/dl, Table 3), according to the 6-point alcohol intoxication behavior scale (Majchrowicz, 1975). […] The autoradiograph was quantified by densitometry (NIH ImageJ® software, National Biosciences, Lincoln, Nebr. USA) and expressed as optical density (OD). […] The levels of soluble HMGB1, TNF-α, IL-1β and MCP-1 were determined by means of a commercially available enzyme-linked immunosorbent assay kit (ELISA) (Elabscience Biotechnology Co., Ltd., China, for HMGB-1; RayBiotech®, GA, USA, for TNF-α, IL-1β, and MCP-1). The nuclear/cytosol HMGB1 fraction was determined by means of Western blot analysis.

CCCCCCCC/C=C\CCCCCCCC(=O)NCCO [OEA, oleoylethanolamide] was tested, and the “Ethanol-induced IκBα protein expression” value ([1]; frontal cortex cytosol extracts) was “did not counteract”, the “Ethanol-induced increase in IκBα mRNA levels” value ([1]; frontal cortex) was “did not counteract” and the “Ethanol intoxication-induced increase in HMGB1 (ELISA)” value ([2]; 2-4 h after last ethanol, OEA 5 mg/kg i.p. (initial 10 mg/kg) 10 min before each ethanol) was “prevented”. For the same molecule, the “HMGB1 n/c ratio (nuclear/cytoplasmic, Western blot)” value ([2]; OEA + ethanol, ethanol alone 1.21, control 1.3) was 1.48.
